In PMC4786259 (PLoS ONE, 2016):

Columns and labels:
[1] = target: α2A (Homo sapiens, UniProt P08913); experiment: PDSP radioligand competition binding; settings: radioligand [^3H]Rauwolscine; read-out: In vitro Affinity
[2] = target: hDAT (Homo sapiens, UniProt Q01959); experiment: Whole cell 3H-dopamine uptake in HEK-DAT cells
Procedure: Cell culture: HEK293 cells (ATCC) lines stably expressing hDAT or hDAT and hVMAT2 constructs were cultured at 37°C and 5% CO2 in DMEM with 10% FBS.
Whole cell ^3H-dopamine (DA) uptake: Cells were plated into 48-well plates one day before uptake was performed. […] After incubation, 25 μl uptake buffer containing ^3H-DA and DA was added for a final concentration of 20 nM ^3H-DA and 1 μM DA. Cells were incubated at 37°C for 20 minutes or for the time indicated. Nonspecific uptake was determined in the presence of 10 μM nomifensine. Uptake was terminated by aspirating uptake buffer and washing each well twice with 0.5 ml ice-cold uptake buffer. Cells were lysed in 0.1 N NaOH and transferred to vials containing 3 ml scintillation cocktail. Radioactivity was quantitated using a Beckman LS6500 counter. Data were analyzed in Graph Pad Prism 5.0.

[3] = target: T1, 5-HT2A (Homo sapiens, UniProt P28223); experiment: PDSP receptor functional assay; type: cell-based
T1 construct: expressed in transfected cells

[4] = target: V1A (Homo sapiens, UniProt P37288); experiment: PDSP radioligand competition binding; settings: radioligand [^3H]Vasopressin; read-out: In vitro Affinity
Sequence of V1A (P37288 whole entry): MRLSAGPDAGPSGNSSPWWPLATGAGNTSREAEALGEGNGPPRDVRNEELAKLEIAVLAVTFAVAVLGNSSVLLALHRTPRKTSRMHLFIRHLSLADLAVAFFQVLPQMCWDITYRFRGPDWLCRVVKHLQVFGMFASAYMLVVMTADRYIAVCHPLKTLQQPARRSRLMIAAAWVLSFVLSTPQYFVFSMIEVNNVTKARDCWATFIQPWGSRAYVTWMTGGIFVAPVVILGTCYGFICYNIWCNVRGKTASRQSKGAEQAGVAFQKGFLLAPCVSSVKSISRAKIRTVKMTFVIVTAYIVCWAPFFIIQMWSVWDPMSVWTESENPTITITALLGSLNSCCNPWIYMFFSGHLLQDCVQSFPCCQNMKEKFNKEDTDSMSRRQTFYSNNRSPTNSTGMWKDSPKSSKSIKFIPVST

[5] = Dynamic light scattering to test for colloidal aggregation; type: physicochemical
Procedure: Measurements were made at room temperature using a DynaPro MS/X (Wyatt Technology) with a 55 mW laser at 826.6 nm. The laser power was 100%, and the detector angle was 90° with samples run in duplicate.

[6] = target: D5 (Homo sapiens, UniProt P21918); experiment: PDSP radioligand competition binding; settings: radioligand [^3H]SCH23390
Sequence of D5 (P21918 whole entry, looked up): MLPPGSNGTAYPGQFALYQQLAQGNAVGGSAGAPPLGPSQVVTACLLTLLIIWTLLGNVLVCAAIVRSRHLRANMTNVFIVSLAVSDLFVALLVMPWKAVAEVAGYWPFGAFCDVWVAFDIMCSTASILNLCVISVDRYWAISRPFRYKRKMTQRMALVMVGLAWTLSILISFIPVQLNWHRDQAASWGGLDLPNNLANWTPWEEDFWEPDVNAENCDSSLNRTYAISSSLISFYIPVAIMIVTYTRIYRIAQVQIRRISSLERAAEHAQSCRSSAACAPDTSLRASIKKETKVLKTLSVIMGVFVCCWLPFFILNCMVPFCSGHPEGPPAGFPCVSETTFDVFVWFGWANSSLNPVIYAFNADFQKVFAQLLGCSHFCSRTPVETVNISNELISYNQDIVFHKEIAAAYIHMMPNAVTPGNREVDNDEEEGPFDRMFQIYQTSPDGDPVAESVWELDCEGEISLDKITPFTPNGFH

[7] = target: T2, 5-HT1A (Homo sapiens, UniProt P08908); experiment: PDSP radioligand competition binding; settings: radioligand [^3H]WAY100635; read-out: In Vitro Affinity
T2 construct: expressed in transfected cells
T2 sequence (P08908 1-422): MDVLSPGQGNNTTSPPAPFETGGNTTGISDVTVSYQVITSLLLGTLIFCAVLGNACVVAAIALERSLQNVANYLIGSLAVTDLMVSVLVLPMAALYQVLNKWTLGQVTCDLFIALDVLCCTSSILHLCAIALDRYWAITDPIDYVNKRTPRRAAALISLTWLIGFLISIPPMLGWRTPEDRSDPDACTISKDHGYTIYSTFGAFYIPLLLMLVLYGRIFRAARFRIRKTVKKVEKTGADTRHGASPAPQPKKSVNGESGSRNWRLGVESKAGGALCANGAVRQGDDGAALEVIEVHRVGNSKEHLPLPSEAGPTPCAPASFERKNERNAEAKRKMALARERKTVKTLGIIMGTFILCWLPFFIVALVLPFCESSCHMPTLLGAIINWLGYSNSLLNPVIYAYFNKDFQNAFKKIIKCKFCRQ

[8] = target: α1B (Homo sapiens, UniProt P35368); experiment: PDSP radioligand competition binding; settings: radioligand [^3H]Prazosin; read-out: In vitro Affinity
Sequence of α1B (P35368 whole entry): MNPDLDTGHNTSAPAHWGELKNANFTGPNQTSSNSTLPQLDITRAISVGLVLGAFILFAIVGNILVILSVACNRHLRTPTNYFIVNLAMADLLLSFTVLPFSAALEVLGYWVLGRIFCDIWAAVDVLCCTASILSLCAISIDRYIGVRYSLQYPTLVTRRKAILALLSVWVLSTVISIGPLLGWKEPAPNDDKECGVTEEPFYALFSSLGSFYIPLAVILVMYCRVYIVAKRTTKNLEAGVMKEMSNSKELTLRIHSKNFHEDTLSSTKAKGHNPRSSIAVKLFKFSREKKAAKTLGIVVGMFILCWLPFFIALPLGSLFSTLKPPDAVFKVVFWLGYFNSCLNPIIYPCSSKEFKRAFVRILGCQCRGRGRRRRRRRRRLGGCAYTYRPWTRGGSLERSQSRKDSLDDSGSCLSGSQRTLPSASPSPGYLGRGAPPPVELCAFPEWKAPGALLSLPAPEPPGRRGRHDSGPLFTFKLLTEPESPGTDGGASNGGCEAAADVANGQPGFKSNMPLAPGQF

[9] = target: α2B (Homo sapiens, UniProt P18089); experiment: PDSP radioligand competition binding; settings: radioligand [^3H]Rauwolscine; read-out: In vitro Affinity
Sequence of α2B (P18089 whole entry): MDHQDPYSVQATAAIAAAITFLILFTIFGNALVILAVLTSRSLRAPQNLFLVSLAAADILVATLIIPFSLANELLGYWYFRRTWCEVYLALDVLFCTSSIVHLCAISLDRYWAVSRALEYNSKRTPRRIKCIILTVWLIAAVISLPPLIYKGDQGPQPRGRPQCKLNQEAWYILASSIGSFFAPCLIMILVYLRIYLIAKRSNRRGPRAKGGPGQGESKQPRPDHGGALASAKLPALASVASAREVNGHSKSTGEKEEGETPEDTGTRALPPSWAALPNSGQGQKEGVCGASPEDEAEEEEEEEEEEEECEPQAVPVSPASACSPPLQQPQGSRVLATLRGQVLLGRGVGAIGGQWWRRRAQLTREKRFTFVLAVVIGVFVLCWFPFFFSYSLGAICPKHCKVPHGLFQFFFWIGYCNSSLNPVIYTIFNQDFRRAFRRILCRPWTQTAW

T1 sequence (P28223 whole entry, looked up): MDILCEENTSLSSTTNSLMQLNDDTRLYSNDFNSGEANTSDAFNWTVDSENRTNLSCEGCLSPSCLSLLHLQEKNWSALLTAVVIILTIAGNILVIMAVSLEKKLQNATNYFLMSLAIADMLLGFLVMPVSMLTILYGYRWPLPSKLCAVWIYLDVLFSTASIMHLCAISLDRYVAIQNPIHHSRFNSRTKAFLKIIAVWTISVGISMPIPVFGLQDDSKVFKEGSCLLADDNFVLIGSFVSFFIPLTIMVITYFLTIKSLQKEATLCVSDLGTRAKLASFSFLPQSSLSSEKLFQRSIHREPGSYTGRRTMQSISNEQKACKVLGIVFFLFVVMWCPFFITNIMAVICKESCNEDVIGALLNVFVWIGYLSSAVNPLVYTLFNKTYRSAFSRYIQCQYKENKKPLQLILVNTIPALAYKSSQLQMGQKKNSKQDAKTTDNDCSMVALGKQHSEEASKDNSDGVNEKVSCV
Sequence of hDAT (Q01959 whole entry): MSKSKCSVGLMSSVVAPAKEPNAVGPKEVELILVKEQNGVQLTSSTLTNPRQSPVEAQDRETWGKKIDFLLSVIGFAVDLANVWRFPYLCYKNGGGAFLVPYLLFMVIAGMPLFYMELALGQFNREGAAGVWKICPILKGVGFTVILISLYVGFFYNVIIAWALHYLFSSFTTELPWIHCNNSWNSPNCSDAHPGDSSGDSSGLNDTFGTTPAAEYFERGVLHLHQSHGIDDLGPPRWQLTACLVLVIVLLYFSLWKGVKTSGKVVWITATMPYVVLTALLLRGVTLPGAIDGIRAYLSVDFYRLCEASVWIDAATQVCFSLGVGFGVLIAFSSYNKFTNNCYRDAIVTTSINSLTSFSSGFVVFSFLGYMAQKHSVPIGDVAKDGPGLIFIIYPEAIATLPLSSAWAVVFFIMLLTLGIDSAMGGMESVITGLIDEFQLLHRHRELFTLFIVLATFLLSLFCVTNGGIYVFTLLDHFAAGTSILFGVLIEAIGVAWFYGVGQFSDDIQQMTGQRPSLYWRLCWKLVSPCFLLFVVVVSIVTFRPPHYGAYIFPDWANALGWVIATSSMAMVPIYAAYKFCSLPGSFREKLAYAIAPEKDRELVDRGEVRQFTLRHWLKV
Sequence of α2A (P08913 whole entry): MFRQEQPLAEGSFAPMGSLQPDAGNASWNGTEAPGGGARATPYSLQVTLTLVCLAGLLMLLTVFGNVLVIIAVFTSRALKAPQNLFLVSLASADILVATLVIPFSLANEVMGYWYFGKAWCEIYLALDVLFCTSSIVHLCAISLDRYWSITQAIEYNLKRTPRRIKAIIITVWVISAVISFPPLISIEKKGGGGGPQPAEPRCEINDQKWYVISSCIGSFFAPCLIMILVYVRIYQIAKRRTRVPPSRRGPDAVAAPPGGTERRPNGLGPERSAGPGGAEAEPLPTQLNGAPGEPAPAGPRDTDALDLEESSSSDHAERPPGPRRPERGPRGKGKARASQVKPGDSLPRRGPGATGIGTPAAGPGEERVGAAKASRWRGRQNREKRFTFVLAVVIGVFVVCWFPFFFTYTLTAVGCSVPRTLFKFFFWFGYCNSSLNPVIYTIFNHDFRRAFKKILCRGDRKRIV

In the case of `COc1cc2c3c(c1OC)-c1ccccc1C[C@H]3N(C)CC2` [nuciferine], the Ki [1] is reported as 1.15 µM, the EC50 [2] is reported as 0.0018 µM and the “Function Type” value [3] is reported as “Antagonist”. The IC50 ([3]; 5-HT2A antagonist activity) was 0.478 µM, the EC50 ([3]; antagonist) was 0.478 µM and the Ki [4] was 10 µM. The “light scattering above background” value ([5]; <= 10 μM, aqueous buffer) was “did not scatter light above background”, the colloidal aggregate formation ([5]; concentrations up to 10 μM) was “does not form aggregates” and the “In Vitro Affinity” value [6] was “(neg) [^3H]SCH23390”. It also gave a Ki [7] of 0.077 µM, a Ki [8] of 2 µM and a Ki [9] of 0.687 µM.
